Assays:
[1] = Parallel Artificial Membrane Permeability Assay (PAMPA), GI; assay type: in vitro ADME; settings: GI (intestinal) PAMPA, value in brackets
Protocol: Parallel Artificial Membrane Permeability Assay (PAMPA). Donor solution (0.5 mM) was prepared by diluting 1 mM dimethylsulfoxide (DMSO) compound stock solution using phosphate buffer (pH 7.4, 0.025 M). Filters were coated with 5 μL of a 1% (w/v) dodecane solution of phosphatidylcholine prepared from CHCl3 solution 10% w/v, for intestinal permeability. Donor solution (150 μL) was added to each well of the filter plate. To each well of the acceptor plate were added 300 μL of solution (50% DMSO in phosphate buffer). All compounds were tested in three different plates on different days. The sandwich was incubated for 5 h at room temperature under gentle shaking. After the incubation time, the plates were separated, and samples were taken from both receiver and donor sides and analyzed using LC with UV detection at 280 nm.
LC analysis were performed with a Varian Prostar HPLC system (Varian Analytical Instruments, USA) equipped with a binary pump with a manual injection valve and model Prostar 325 UV-VIS Detector. Chromatographic separations were conducted using a Polaris C18-A column (150-4.6 mm, 5 μm particle size) at a flow rate of 0.8 mL min^−1 with a mobile phase composed of 60% ACN/40% H2O.
Permeability (Papp) for PAMPA was calculated according to the following equation, obtained from Wohnsland and Faller and Sugano et al. equation with some modification in order to obtain permeability values in cm s^−1,
where VA is the volume in the acceptor well, VD is the volume in the donor well (cm^3), A is the “effective area” of the membrane (cm^2), t is the incubation time (s) and r the ratio between drug concentration in the acceptor and equilibrium concentration of the drug in the total volume (VD+VA). Drug concentration is estimated by using the peak area integration.
Membrane retentions (%) were calculated according to the following equation: […]
where r is the ratio between drug concentration in the acceptor and equilibrium concentration, D, A, and Eq represented drug concentration in the donor, acceptor and equilibrium solution, respectively.

[2] = Microsomal Stability Assay (HLM); assay type: in vitro ADME; settings: human liver microsomes, 37° C., 60 min, NADPH-generating system; percentage of not metabolized compound
Description: (§1) For the quantification was used an LC-MS system consisted of a Varian apparatus (Varian Inc) including a vacuum solvent degassing unit, two pumps (212-LC), a Triple Quadrupole MSD (Mod. 320-LC) mass spectrometer with ES interface and Varian MS Workstation System Control Vers. 6.9 software. Chromatographic separation was obtained using a Pursuit C18 column (50×2.0 mm) (Varian) with 3 μm particle size and gradient elution: eluent A being ACN and eluent B consisting of water. […] The flow rate was 0.2 mL min^−1 and injection volume was 5 μL. The instrument operated in positive mode and parameters were: detector 1850 V, drying gas pressure 25.0 psi, desolvation temperature 300.0° C., nebulizing gas 40.0 psi, needle 5000 V and shield 600 V. Nitrogen was used as nebulizer gas and drying gas. Collision induced dissociation was performed using Argon as the collision gas at a pressure of 1.8 mTorr in the collision cell. Microsomal Stability Assay. […] The reaction was stopped by cooling on ice and adding 1.0 mL of acetonitrile. The reaction mixtures were then centrifuged, and the parent drug and metabolites were subsequently determined by LC-UV-MS. Chromatographic analysis was performed with an Agilent 1100 LC/MSD VL system (G1946C) (Agilent Technologies, Palo Alto, Calif.) constituted by a vacuum solvent degassing unit, a binary high-pressure gradient pump, an 1100 series UV detector, and an 1100 MSD model VL benchtop mass spectrometer.
Chromatographic separation was obtained using a Varian Polaris C18-A column (150-4.6 mm, 5 μm particle size) and gradient elution: eluent A being ACN and eluent B consisting of water. […] The flow rate was 0.8 mL min^−1 and injection volume was 20 μL.
The Agilent 1100 series mass spectra detection (MSD) single-quadrupole instrument was equipped with the orthogonal spray API-ES (Agilent Technologies, Palo Alto, Calif.). Nitrogen was used as nebulizing and drying gas. The pressure of the nebulizing gas, the flow of the drying gas, the capillary voltage, the fragmentor voltage, and the vaporization temperature were set at 40 psi, 9 L/min, 3000 V, 70 V, and 350° C., respectively. UV detection was monitored at 280 nm. The LC-ESI-MS determination was performed by operating the MSD in the positive ion mode. Spectra were acquired over the scan range m/z 100-1500 using a step size of 0.1 u. The percentage of not metabolized compound was calculated by comparison with reference solutions.

[3] = tested on: Human breast adenocarcinoma cell line (MDA-MB-231); test: Cytotoxicity test / growth inhibition, MDA-MB-231; assay type: cell-based; settings: MDA-MB-231, 48 hours, cell counting
Protocol: (§2) Cells were purchased from American Type Culture Collection (ATCC, Manassas, Va., USA). The LNCaP (ATCC® CRL-1740™), A549 (ATCC® CCL-185™), MDA-MB-231 (ATCC® CRM-HTB-26™), 22Rv1 (ATCC® CRL-2505™), HCT-116 (ATCC® CCL-247™) and PC3 (ATCC® CRL-1435™) cells were maintained in Roswell Park Memorial Institute 1640 medium (RPMI; Euroclone, ECB9006L) supplemented with 10% fetal bovine serum (Euroclone; ECS0180L), 2 mM L-glutamine, 100 units/mL penicillin and […] streptomycin at 37° C. in an atmosphere of 5% CO2/air. DU145 (ATCC® HTB-81™), and DAOY (ATCC® HTB-186™) cells were maintained in Eagle's minimal essential medium (EMEM; Euro-clone, ECM0445L) supplemented with 10% fetal bovine serum (Euroclone; ECS0180L), 2 mM L-glutamine, 100 units/ml penicillin and […] streptomycin at 37° C. in an atmosphere of 5% CO2/air. SH-SY5Y (ATCC® CRL-2266™), DBRTG (ATCC® CRL-2020™), HeLa (ATCC® CCL-2™), HN6 cells (kindly provided by Dr Silvio Gutkind, UCSD Medical Center, Moores Cancer Center USA, Chen J. J et al, Oncotarget 2013, 4, 206-217)), U2OS (ATCC® HTB-96™), RD18 cells (kindly provided by Dr P. Boccuni Memorial Sloan-Kettering Cancer Center, New York, USA Vella S. et al. Clin Epigenetics. 2015 6; 7-82), cells were maintained in Dulbecco's modified Eagle's medium (DMEM; Euroclone, ECB7501L) supplemented with 10% fetal bovine serum (Euroclone; ECS0180L), 2 mM L-glutamine, 100 units/ml penicillin and […] streptomycin at 37° C. in an atmosphere of 5% CO2/air.
(§3) Cell lines were seeded at appropriate densities in 2 mL growth medium in 6-wells culture plates 24 hours before the treatment with the inhibitor compounds. After 24 h the culture medium was removed and fresh medium containing increasing concentrations of chemical compounds was added to cells. The fixed final concentrations were: 0.1 μM, 1 μM, 10 μM, 100 μM. DMSO was the vehicle used for dilution of the compounds and its final concentration on cells was less than 0.2%. Medium-only containing wells were included as controls. Cells were incubated 48 hours with drugs and, then, cell viability was evaluated.
(§4) Cells were detached from each well of the 6-wells plates with 300 μL of Trypsin and suspended in culture medium to a final volume of 1 mL. Cell viability was then assessed through cell counting. Cells were diluted in 1:50 ratio of an isotonic buffered diluent, Isoton (Backman Coulter), following the manufacturer's instructions, and counted using an automated cell counter (Z2 series Coulter Counter, Beckman Coulter). Each cell count was performed in three replicates. The values corresponding to the relative survival of cells in presence of each chemical compound at single concentrations were normalized to the untreated controls. Then, the half maximal inhibitory concentration (IC50) value, which represent the drug concentration that is required to induce a 50% growth inhibition in vitro, was calculated with GraphPad Prism 6.0 software using the best fitting sigmoid curve.

[4] = tested on: Human osteosarcoma cell line (U2OS); test: Cytotoxicity test / growth inhibition, U2OS; assay type: cell-based; settings: 48 hours, cell counting
Protocol: as §2, §3, §4

[5] = tested on: Human head and neck squamous carcinoma cell line (HN6); test: Cytotoxicity test / growth inhibition, HN6; assay type: cell-based; settings: HN6, 48 hours, cell counting
Protocol: as §2, §3, §4

[6] = tested on: Human adenocarcinomic alveolar basal epithelial cell line (A549); test: Cytotoxicity test / growth inhibition, A549; assay type: cell-based; settings: A549, 48 hours, cell counting
Protocol: as §2, §3, §4

[7] = target: T1, Human recombinant DDX3 (DDX3 wt helicase) (Homo sapiens, UniProt O00571); test: Helicase assay (anti-enzymatic activity against the DDX3 helicase); assay type: biochemical; settings: for activity compared with compound EI01D: DDX3 helicase inhibition relative to EI01D
T1 construct: made in house
Protocol: The helicase activity of DDX3 wt was monitored by measuring the conversion of a double stranded (ds) RNA (labelled at the 5′-end of one strand with a 6-FAM fluorescent) into single stranded (ss) nucleic acid. A final concentration of 25 nM RNA substrate was used in the experiments, unless otherwise stated. Reactions were performed in 50 mM TrisHCl pH 7.5, 1 mM DTT, 0.2 mg/ml BSA, 5% glycerol and 100 μM ATP, 10 mM MgCl2 at 37° C. degrees for 10′ and stopped by adding EDTA 50 mM pH 8. Products were separated through non-denaturating 8% PAGE at 5 W for 4 hours in TBE buffer at 4° C. Substrates and products were quantified by laser scanning densitometry (Thyphoon-TRIO, GE Healthcare).
Human recombinant DDX3 was cloned, expressed and purified as described (Franca et al. Proteins 2007, 67, 1128-37).

Water Solubility Assay = assay type: physicochemical; settings: for LogS: from aqueous solubility; for Aq. Solub.: water, room temperature, 24-36 h
Protocol: Water Solubility Assay. Each solid compound (1 mg) was added to 1 mL of water. The samples were shaked in a shaker bath at room temperature for 24-36 h. The suspensions were filtered through a 0.45 μm nylon filter (Acrodisc), and the solubilized compound determined by LC-MS-MS assay. For each compound the determination was performed in triplicate.
as §1

T1 sequence (O00571 whole entry): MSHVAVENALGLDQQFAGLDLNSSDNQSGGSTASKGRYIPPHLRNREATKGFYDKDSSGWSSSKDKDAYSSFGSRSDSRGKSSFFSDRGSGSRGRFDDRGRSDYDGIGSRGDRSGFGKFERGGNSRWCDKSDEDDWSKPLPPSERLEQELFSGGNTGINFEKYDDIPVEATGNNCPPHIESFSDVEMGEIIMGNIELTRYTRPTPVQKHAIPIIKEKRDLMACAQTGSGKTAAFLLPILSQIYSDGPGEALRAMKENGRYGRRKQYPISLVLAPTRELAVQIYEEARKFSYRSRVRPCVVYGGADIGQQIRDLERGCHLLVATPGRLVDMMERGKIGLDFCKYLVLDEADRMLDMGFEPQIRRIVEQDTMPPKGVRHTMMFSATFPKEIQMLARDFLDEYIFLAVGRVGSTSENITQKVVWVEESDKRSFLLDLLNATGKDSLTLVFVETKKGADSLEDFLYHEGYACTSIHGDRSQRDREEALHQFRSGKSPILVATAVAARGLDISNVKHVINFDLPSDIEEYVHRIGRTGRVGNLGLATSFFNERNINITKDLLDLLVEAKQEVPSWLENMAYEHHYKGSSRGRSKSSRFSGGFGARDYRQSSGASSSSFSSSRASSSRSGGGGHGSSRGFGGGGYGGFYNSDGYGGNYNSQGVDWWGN

For `CCCCc1cn(-c2ccc(NC(=O)Nc3ccccc3C(F)(F)F)cc2F)nn1` [Compound 81, 1-(4-(4-butyl-1H-1,2,3-triazol-1-yl)-3-fluorophenyl)-3-(2-(trifluoromethyl)phenyl)urea], the “PAMPA GI (RM %) membrane retention” value [1] was 30.4%, the Sability % [2] was 94% and the IC50 [3] was 25.1 µM.
With `CCCCn1nnc(-c2ccc(NC(=O)Nc3ccccc3C(F)(F)F)cc2)n1` [Compound 51, 1-(4-(2-butyl-2H-tetrazol-5-yl)phenyl)-3-(2-(trifluoromethyl)phenyl)urea] the IC50 [4] was 51.5 µM and the IC50 [5] was 16.4 µM.
`CCCCc1nnc(-c2ccc(NC(=O)Nc3ccccc3C(F)(F)F)cc2)s1` [Compound 124, 1-(4-(5-butyl-1,3,4-thiadiazol-2-yl)phenyl)-3-(2-(trifluoromethyl)phenyl)urea] showed an IC50 [4] of 60.1 µM.
For `COCCc1cn(-c2ccc(NC(=O)Nc3ccccc3C)cc2)nn1` [Compound 20f, 1-(4-(4-(2-methoxyethyl)-1H-1,2,3-triazol-1-yl)phenyl)-3-o-tolylurea], the “PAMPA GI (RM %) membrane retention” value [1] was 7.4%.
`CCCC(C)C(F)c1cn(-c2ccc(NC(=O)Nc3ccccc3C(F)(F)F)cc2)nn1` (stereo not shown) [Compound 42c, 1-(4-(4-(1-fluoro-2-methylpentyl)-1H-1,2,3-triazol-1-yl)phenyl)-3-(2-(trifluoromethyl)phenyl) urea] showed an IC50 [3] of 33.6 µM, an IC50 [6] of 57.2 µM and an IC50 [4] of 22.5 µM. The IC50 [5] was 6.32 µM.
Compound `CC(C)CCc1cn(-c2ccc(NC(=O)Nc3ccccc3C(F)(F)F)cn2)nn1` [Compound 86, 1-(6-(4-isopentyl-1H-1,2,3-triazol-1-yl)pyridin-3-yl)-3-(2-(trifluoromethyl)phenyl)urea] has an IC50 ([7]; DDX3 helicase activity, dsRNA unwinding, n.a = Compound not active, read-out: ID50 (the source's name)) of 51 µM.
In the case of `CC(C)CCc1cn(-c2ccc(NC(=O)Nc3cccc(F)c3)cc2)nn1` [Compound 55b, 1-(3-fluorophenyl)-3-(4-(4-isopentyl-1H-1,2,3-triazol-1-yl)phenyl)urea], the “activity compared with compound EI01D” value [7] is reported as “approximately ten-fold more active”.
For `Cc1ccccc1NC(=O)Nc1ccc(-n2cc(CCC(C)C)nn2)cc1` [Compound 20b, 1-(4-(4-isopentyl-1H-1,2,3-triazol-1-yl)phenyl)-3-o-tolylurea], the “PAMPA GI (RM %) membrane retention” value [1] was 26.7%, the LogS (Water Solubility Assay) was <−8.6 and the “Aq. Solub.” value (Water Solubility Assay) was <0.001 µg/mL.
With `Cc1c(Cl)cccc1NC(=O)Nc1ccc(-n2cc(CCC(C)C)nn2)cc1` [Compound 21b, 1-(3-chloro-2-methylphenyl)-3-(4-(4-isopentyl-1H-1,2,3-triazol-1-yl)phenyl)urea] the “PAMPA GI (RM %) membrane retention” value [1] was 59.1%, the LogS (Water Solubility Assay) was <−8.6 and the “Aq. Solub.” value (Water Solubility Assay) was <0.001 µg/mL.
For `CC(C)CCc1cn(-c2ccc(NC(=O)Nc3ccccc3F)cc2)nn1` [Compound 55a, 1-(2-fluorophenyl)-3-(4-(4-isopentyl-1H-1,2,3-triazol-1-yl)phenyl)urea], the “activity compared with compound EI01D” value [7] was “approximately ten-fold more active”.
In the case of `CC(C)CCc1cn(-c2ccc(NC(=O)Nc3ccccc3C(F)(F)F)cc2)nn1` [Compound 22b, 1-(4-(4-isopentyl-1H-1,2,3-triazol-1-yl)phenyl)-3-(2-(trifluoromethyl)phenyl)urea], the “activity compared with compound EI01D” value [7] is reported as “approximately ten-fold more active”, the “PAMPA GI (RM %) membrane retention” value [1] is reported as 24.8% and the LogS (Water Solubility Assay) is reported as <−8.6. For the same compound, the IC50 [3] was 13.1 µM.
In the case of `CCOCn1nnc(-c2ccc(NC(=O)Nc3ccccc3C)cc2)n1` [Compound 50, 1-(4-(2-(ethoxymethyl)-2H-tetrazol-5-yl)phenyl)-3-(o-tolyl)urea], the IC50 [3] is reported as 23.5 µM.

— patent publication US11000512B2, “Use of DDX3 inhibitors as antiproliferative agents” (AZIENDA OSPEDALIERA UNIVERSITARIA SENESE, priority 2016, dated 2021)
